Experimental data published in the NIST ThermoML archive (doi:10.1021/je060380p).
Numbers after ± are expanded uncertainties.

Settings: Crystal; visual observation

For c1ccc2cc3ccccc3cc2c1 [anthracene], the Normal melting temperature was 216 ± 1 °C.
